ChEMBL document CHEMBL3045442, “Fungicidal activity of pipernonaline, a piperidine alkaloid derived from long pepper, Piper longum L., against phytopathogenic fungi” (2001)

How the values were obtained:
Format in all cases: functional
Design in all cases: scale not given: the % may be the effect or the level left
[1] = tested on: Phytophthora infestans; test: Fungicidal activity against Phytophthora infestans infected tomato assessed as reduction in tomato late blight disease at 50 mg/l applied for 1 day prior to infection relative to untreated control
[2] = tested on: Botrytis cinerea; test: Fungicidal activity against Botryotinia fuckeliana infected cucumber assessed as reduction in cucumber gray mold disease at 50 mg/l applied for 1 day prior to infection relative to untreated control
[3] = tested on: Rhizoctonia solani; test: Fungicidal activity against Rhizoctonia solani infected rice assessed as reduction in rice sheath blight disease at 500 mg/l applied for 1 day prior to infection relative to untreated control
[4] = tested on: Puccinia recondita; test: Fungicidal activity against Puccinia recondita infected wheat assessed as reduction in wheat leaf rust disease at 500 mg/l applied for 1 day prior to infection relative to untreated control
[5] = tested on: Blumeria graminis; test: Fungicidal activity against Blumeria graminis infected barley assessed as reduction in powdery mildew disease at 500 mg/l applied for 1 day prior to infection relative to untreated control
[6] = tested on: Puccinia recondita; test: Fungicidal activity against Puccinia recondita infected wheat assessed as reduction in wheat leaf rust disease at 1000 mg/l applied for 1 day prior to infection relative to untreated control
[7] = tested on: Botrytis cinerea; test: Fungicidal activity against Botryotinia fuckeliana infected cucumber assessed as reduction in cucumber gray mold disease at 500 mg/l applied for 1 day prior to infection relative to untreated control
[8] = tested on: Pyricularia grisea; test: Fungicidal activity against Magnaporthe grisea infected rice assessed as reduction in rice blast disease at 1000 mg/l applied for 1 day prior to infection relative to untreated control
[9] = tested on: Phytophthora infestans; test: Fungicidal activity against Phytophthora infestans infected tomato assessed as reduction in tomato late blight disease at 500 mg/l applied for 1 day prior to infection relative to untreated control
[10] = tested on: Blumeria graminis; test: Fungicidal activity against Blumeria graminis infected barley assessed as reduction in powdery mildew disease at 1000 mg/l applied for 1 day prior to infection relative to untreated control
[11] = tested on: Pyricularia grisea; test: Fungicidal activity against Magnaporthe grisea infected rice assessed as reduction in rice blast disease at 500 mg/l applied for 1 day prior to infection relative to untreated control
[12] = tested on: Rhizoctonia solani; test: Fungicidal activity against Rhizoctonia solani infected rice assessed as reduction in rice sheath blight disease at 1000 mg/l applied for 1 day prior to infection relative to untreated control
[13] = tested on: Botrytis cinerea; test: Fungicidal activity against Botryotinia fuckeliana infected cucumber assessed as reduction in cucumber gray mold disease at 1000 mg/l applied for 1 day prior to infection relative to untreated control
[14] = tested on: Phytophthora infestans; test: Fungicidal activity against Phytophthora infestans infected tomato assessed as reduction in tomato late blight disease at 1000 mg/l applied for 1 day prior to infection relative to untreated control
[15] = tested on: Blumeria graminis; test: Fungicidal activity against Blumeria graminis infected barley assessed as reduction in powdery mildew disease at 250 mg/l applied for 1 day prior to infection relative to untreated control
[16] = tested on: Rhizoctonia solani; test: Fungicidal activity against Rhizoctonia solani infected rice assessed as reduction in rice sheath blight disease at 250 mg/l applied for 1 day prior to infection relative to untreated control
[17] = tested on: Botrytis cinerea; test: Fungicidal activity against Botryotinia fuckeliana infected cucumber assessed as reduction in cucumber gray mold disease at 250 mg/l applied for 1 day prior to infection relative to untreated control
[18] = tested on: Puccinia recondita; test: Fungicidal activity against Puccinia recondita infected wheat assessed as reduction in wheat leaf rust disease at 250 mg/l applied for 1 day prior to infection relative to untreated control
[19] = tested on: Pyricularia grisea; test: Fungicidal activity against Magnaporthe grise infected rice assessed as reduction in rice blast disease at 250 mg/l applied for 1 day prior to infection relative to untreated control
[20] = tested on: Phytophthora infestans; test: Fungicidal activity against Phytophthora infestans infected tomato assessed as reduction in tomato late blight disease at 250 mg/l applied for 1 day prior to infection relative to untreated control

Structure (SMILES)	Activity [1]	Activity [2]	Activity [3]	Activity [4]	Activity [5]	Activity [6]	Activity [7]	Activity [8]	Activity [9]	Activity [10]	Activity [11]	Activity [12]	Activity [13]	Activity [14]	Activity [15]	Activity [16]	Activity [17]	Activity [18]	Activity [19]	Activity [20]
N#Cc1c(Cl)c(Cl)c(Cl)c(C#N)c1Cl [CHLOROTHALONIL]	95%	–	–	–	–	–	–	–	–	–	–	–	–	–	–	–	–	–	–	–
CN(C)S(=O)(=O)N(SC(F)(Cl)Cl)c1ccccc1 [DICHLOFLUANID]	–	92%	–	–	–	–	–	–	–	–	–	–	–	–	–	–	–	–	–	–
C=CCc1ccc(O)c(OC)c1 [EUGENOL]	–	–	0%	0%	0%	0%	0%	0%	0%	5%	0%	0%	0%	0%	–	–	–	–	–	–
O=C(CCCC/C=C/c1ccc2c(c1)OCO2)N1CCCCC1 [PIPERETTINE]	–	–	0%	0%	40%	0%	0%	0%	0%	60%	0%	0%	0%	0%	–	–	–	–	–	–
O=C(/C=C/C=C/c1ccc2c(c1)OCO2)N1CCCCC1 [PIPERINE]	–	–	0%	0%	0%	0%	0%	0%	0%	0%	0%	0%	0%	0%	–	–	–	–	–	–
O=C(/C=C/CCCC/C=C/c1ccc2c(c1)OCO2)N1CCCCC1 [PIPERNONALINE]	–	–	0%	91%	0%	100%	0%	71%	80%	0%	51%	35%	0%	91%	0%	0%	0%	80%	26%	55%
COc1cc(/C=C/C(=O)N2CCC=CC2=O)cc(OC)c1OC [PIPLARTINE]	–	–	0%	0%	0%	0%	0%	10%	0%	0%	0%	0%	0%	0%	–	–	–	–	–	–
